LC retention time data for 80 molecules are collected here from the RepoRT retention time repository.

The data set can be described thus: HILIC, Waters ACQUITY UPLC BEH Amide, 100 × 2.1 mm, 1.7 µm; A: water + 0.125% formic acid + 10 mM ammonium formate; B: 5% water + 95% acetonitrile + 0.125% formic acid + 10 mM ammonium formate; gradient (min/%B) 0/100 2/100 7.7/70 9.5/40 10.25/30 12.75/100 17/100. The conditions noted are these: stereoisomer not certain.
`COCCCCC(=NOCCN)c1ccc(C(F)(F)F)cc1` [Fluvoxamine]: the LC retention time is 2.93 min.

Turning to `Nc1nc2c(c(=O)[nH]1)N(C=O)C(CNc1ccc(C(=O)NC(CCC(=O)O)C(=O)O)cc1)CN2` (stereo not given) [Folinic acid], the LC retention time worked out at 7.92 min.

Regarding `COc1ccc(-c2coc3cc(O)ccc3c2=O)cc1` [Formononetine], the LC retention time was found to be 1.18 min.

In the case of `COc1ccc(CC(C)NCC(O)c2ccc(O)c(NC=O)c2)cc1` (stereo not given) [Formoterol], the LC retention time came out at 5.18 min.

Turning to `CC(=O)OC1CC(C)(C)C(=C=CC(C)=CC=CC(C)=CC=CC=C(C)C=CC=C(C)C(=O)CC23OC2(C)CC(O)CC3(C)C)C(C)(O)C1` (stereo not given) [Fucoxanthin], the LC retention time turned out to be 1.07 min.

On to `CCOC(=O)c1ccc(OC(=O)CCCCCN=C(N)N)cc1` [Gabexate], for which the LC retention time is 3.45 min.

Regarding `NC1C(O)OC(CO)C(O)C1O` (stereo not given) [Galactosamine], the LC retention time came out at 8.44 min.

Consider `COc1ccc2c3c1OC1CC(O)C=CC31CCN(C)C2` (stereo not given) [Galanthamine], for which the LC retention time came out at 4.62 min.

Take `COC(=O)C1=COC(OC2OC(CO)C(O)C(O)C2O)C2C(CO)=CCC12` (stereo not given) [Geniposide]: the LC retention time was determined as 4.53 min.

With `O=C(O)c1cc(O)ccc1O` [Gentisinic acid], the LC retention time came to 3.18 min.

Consider `CC(C)=CCCC(C)=CC(=O)O` [Geranic acid], for which the LC retention time stood at 1.3 min.

`CCC1=C(C)CN(C(=O)NCCc2ccc(S(=O)(=O)NC(=O)NC3CCC(C)CC3)cc2)C1=O` (stereo not given) [Glimepiride]: the LC retention time worked out at 1.05 min.

Take `NC(N)=NCCCC(NC(=O)C(N)CCC(=O)O)C(=O)O` (stereo not given) [Glu-Arg]: the LC retention time came out at 9.9 min.

On to `NC(=O)CCC(NC(=O)C(N)CCC(=O)O)C(=O)O` (stereo not given) [Glu-Gln], for which the LC retention time was determined as 9.6 min.

For the molecule `NCCCCC(NC(=O)C(N)CCC(=O)O)C(=O)O` (stereo not given) [Glu-Lys], the LC retention time came to 9.9 min.

Turning to `NC(CCC(=O)O)C(=O)NC(Cc1ccccc1)C(=O)O` (stereo not given) [Glu-Phe], the LC retention time was 8.2 min.

Consider `CC(O)C(NC(=O)C(N)CCC(=O)O)C(=O)O` (stereo not given) [Glu-Thr], for which the LC retention time was determined as 9.44 min.

Regarding `CC(C)C(NC(=O)C(N)CCC(=O)O)C(=O)NC(Cc1ccccc1)C(=O)O` (stereo not drawn) [Glu-Val-Phe], the LC retention time was determined as 7.66 min.

Turning to `O=C1OC(CO)C(O)C(O)C1O` (stereo not given) [Gluconolactone], the LC retention time was 8.15 min.

Consider `CS(=O)CCCCC(=NOS(=O)(=O)O)SC1OC(CO)C(O)C(O)C1O` (stereo not given) [Glucoraphanin], for which the LC retention time came out at 7.37 min.

For the molecule `NC1C(O)OC(COP(=O)(O)O)C(O)C1O` (stereo not given) [Glucosamine-6-phosphate], the LC retention time was found to be 10.1 min.

For the molecule `O=P(O)(O)OC1OC(CO)C(O)C(O)C1O` (stereo not given) [Glucose-1-phosphate], the LC retention time was 9.61 min.

In the case of `O=P(O)(O)OCC1OC(O)C(O)C(O)C1O` (stereo not given) [Glucose-6-phosphate], the LC retention time turned out to be 9.86 min.

`O=CC(O)C(O)C(O)C(O)CO` (stereo not given) [Glucose]: the LC retention time worked out at 1.84 min.

Turning to `NC(CCC(=O)O)C(=O)O` (stereo not given) [Glutamic acid], the LC retention time is 8.85 min.

For `NC(CCC(=O)NC(CSSCC(NC(=O)CCC(N)C(=O)O)C(=O)NCC(=O)O)C(=O)NCC(=O)O)C(=O)O` (stereo not given) [Glutathione (oxidized)], the LC retention time amounted to 10.2 min.

Regarding `NC(CCC(=O)NC(CS)C(=O)NCC(=O)O)C(=O)O` (stereo not given) [Glutathione (reduced)], the LC retention time worked out at 9.07 min.

For `NCC(=O)NCC(=O)NCC(=O)O` [Gly-Gly-Gly], the LC retention time was 9.18 min.

In the case of `CCC(C)C(NC(=O)CN)C(=O)O` (stereo not given) [Gly-Ile], the LC retention time amounted to 7.67 min.

As to `NCC(=O)N1CCCC1C(=O)O` (stereo not given) [Gly-Pro], the LC retention time is 8.62 min.

On to `CC(NC(=O)C(Cc1ccc(O)cc1)NC(=O)CN)C(=O)O` (stereo not drawn) [Gly-Tyr-Ala], for which the LC retention time was determined as 7.89 min.

`NCC(=O)NC(Cc1ccc(O)cc1)C(=O)O` (stereo not given) [Gly-Tyr]: the LC retention time came to 8.07 min.

With `CC(C)C(NC(=O)CN)C(=O)O` (stereo not given) [Gly-val], the LC retention time was 8.05 min.

As for `C[N+](C)(C)CCOP(=O)([O-])OCC(O)CO` (stereo not given) [Glycerophosphocholine], the LC retention time turned out to be 8.67 min.

`NCC(=O)O` [Glycine]: the LC retention time was 8.33 min.

As to `COc1cc2c(=O)c(-c3ccc(O)cc3)coc2cc1O` [Glycitein], the LC retention time worked out at 1.32 min.

Take `CC(C)CC(NC(=O)CN)C(=O)O` (stereo not given) [Glycyl-leucine]: the LC retention time was 8.14 min.

Turning to `CC(C)CC(NC(=O)C(COC(C)(C)C)NC(=O)C(Cc1ccc(O)cc1)NC(=O)C(CO)NC(=O)C(Cc1c[nH]c2ccccc12)NC(=O)C(Cc1cnc[nH]1)NC(=O)C1CCC(=O)N1)C(=O)NC(CCCN=C(N)N)C(=O)N1CCCC1C(=O)NNC(N)=O` (stereo not given) [Goserelin], the LC retention time was determined as 7.83 min.

As for `CN1C2CCCC1CC(NC(=O)c1nn(C)c3ccccc13)C2` (stereo not given) [Granisetron], the LC retention time is 4.12 min.

In the case of `NC(N)=NCC(=O)O` [Guanidinoacetic acid], the LC retention time turned out to be 8.16 min.

`Nc1nc2nc[nH]c2c(=O)[nH]1` [Guanine]: the LC retention time came out at 6.4 min.

As to `Nc1nc2c(ncn2C2OC3COP(=O)(O)OC3C2O)c(=O)[nH]1` (stereo not given) [Guanosine-3',5'-cyclic monophosphate], the LC retention time was 8.39 min.

Consider `Nc1nc2c(ncn2C2OC(CO)C(O)C2O)c(=O)[nH]1` (stereo not given) [Guanosine], for which the LC retention time worked out at 7.33 min.

Take `CC1CC2C3CC(F)C4=CC(=O)C(Cl)=CC4(C)C3(F)C(O)CC2(C)C1(O)C(=O)CO` (stereo not given) [Halometasone]: the LC retention time came to 1.12 min.

For `O=C(CCCN1CCC(O)(c2ccc(Cl)cc2)CC1)c1ccc(F)cc1` [Haloperidol], the LC retention time is 2.31 min.

`CCCCCCCCCCCCCCCCC(=O)O` [Heptadecanoic acid]: the LC retention time worked out at 3.01 min.

`CCCCCC(=O)O` [Hexanoic acid]: the LC retention time stood at 4.89 min.

In the case of `CCCCCC(=O)OC(CC(=O)[O-])C[N+](C)(C)C` [Hexanoyl-L-carnitine], the LC retention time was 5.09 min.

With `CC(CCCCC(=O)Nc1ccc(C(F)(F)F)cc1)NCCc1cnc[nH]1` (stereo not given) [Histamine-trifluoromethyltoluide], the LC retention time stood at 5.3 min.

For `NCCc1cnc[nH]1` [Histamine], the LC retention time worked out at 8.29 min.

In the case of `NC(Cc1cnc[nH]1)C(=O)O` (stereo not given) [Histidine], the LC retention time amounted to 9.48 min.

Consider `NC(N)=NCCCCC(N)C(=O)O` (stereo not given) [Homoarginine], for which the LC retention time came to 9.34 min.

Turning to `NC(CCS)C(=O)O` (stereo not given) [Homocysteine], the LC retention time is 9.58 min.

As for `NC(CCSSCCC(N)C(=O)O)C(=O)O` (stereo not given) [Homocystine], the LC retention time worked out at 9.58 min.

As for `COC(=O)CC(O)(CCCC(C)(C)O)C(=O)OC1C(OC)=CC23CCCN2CCc2cc4c(cc2C13)OCO4` (stereo not given) [Homoharringtonine], the LC retention time was 3.24 min.

Take `NC(CCO)C(=O)O` (stereo not given) [Homoserine]: the LC retention time was found to be 8.29 min.

As for `COc1ccc(CCN)cc1OC` [Homoveratrylamine], the LC retention time turned out to be 4.78 min.

As to `CC=C1C2C=C(C)CC1(N)c1ccc(=O)[nH]c1C2` (stereo not given) [Huperzine], the LC retention time was determined as 5.74 min.

Consider `O=C(O)CCc1ccccc1` [Hydrocinnamic acid], for which the LC retention time stood at 8.71 min.

As for `COc1ccc2c3c1OC1C(=O)CCC4C(C2)N(C)CCC314` (stereo not given) [Hydrocodone], the LC retention time came to 3.8 min.

`CC12CCC(=O)C=C1CCC1C2C(O)CC2(C)C1CCC2(O)C(=O)CO` (stereo not given) [Hydrocortisone]: the LC retention time came out at 2.56 min.

In the case of `CN1CCC23c4c5ccc(O)c4OC2C(=O)CCC3C1C5` (stereo not given) [Hydromorphone], the LC retention time turned out to be 5.22 min.

As to `O=C(O)C1CC(O)CN1` (stereo not given) [Hydroxyproline], the LC retention time stood at 8.14 min.

With `O=c1[nH]cnc2nc[nH]c12` [Hypoxanthine], the LC retention time turned out to be 4.99 min.

As to `COc1ccc(-c2oc3c(CC=C(C)C)c(OC4OC(CO)C(O)C(O)C4O)cc(O)c3c(=O)c2OC2OC(C)C(O)C(O)C2O)cc1` (stereo not given) [Icarin], the LC retention time came out at 4.74 min.

Regarding `CC(=O)C1(O)Cc2c(O)c3c(c(O)c2C(OC2CC(N)C(O)C(C)O2)C1)C(=O)c1ccccc1C3=O` (stereo not given) [Idarubicin], the LC retention time was 5.42 min.

Take `COC1=C(OC)C(=O)C(CCCCCCCCCCO)=C(C)C1=O` [Idebenone]: the LC retention time is 0.96 min.

With `CC(C(O)c1ccc(O)cc1)N1CCC(Cc2ccccc2)CC1` (stereo not given) [Ifenprodil], the LC retention time is 3.17 min.

On to `Cc1ccc(NC(=O)c2ccc(CN3CCN(C)CC3)cc2)cc1Nc1nccc(-c2cccnc2)n1` [Imatinib], for which the LC retention time turned out to be 5.36 min.

Take `c1c[nH]cn1` [Imidazole]: the LC retention time stood at 4.53 min.

As for `O=C1C(c2c(O)[nH]c3ccccc23)=Nc2ccccc21` [Indarubicin], the LC retention time is 1.07 min.

For `CNC1CC(c2ccc(Cl)c(Cl)c2)c2ccccc21` (stereo not given) [Indatraline], the LC retention time came out at 2.88 min.

Take `CC(C)(C)NC(=O)C1CN(Cc2cccnc2)CCN1CC(O)CC(Cc1ccccc1)C(=O)NC1c2ccccc2CC1O` (stereo not given) [Indinavir]: the LC retention time worked out at 2.17 min.

As for `NC(=O)Cc1c[nH]c2ccccc12` [Indole-3-acetamide], the LC retention time was 1.36 min.

For `OCc1c[nH]c2ccccc12` [Indole-3-carbinol], the LC retention time came out at 1.24 min.

Regarding `O=Cc1c[nH]c2ccccc12` [Indole-3-carboxaldehyde], the LC retention time was found to be 1.16 min.

Take `O=C(O)c1c[nH]c2ccccc12` [Indole-3-carboxylic acid]: the LC retention time turned out to be 1.41 min.

With `O=C(O)C(=O)Cc1c[nH]c2ccccc12` [Indole-3-pyruvic acid], the LC retention time was determined as 5.11 min.

With `O=C(O)C(O)Cc1c[nH]c2ccccc12` (stereo not given) [Indolelactic acid], the LC retention time was 2.25 min.

Consider `COc1ccc2c(c1)c(CC(=O)O)c(C)n2C(=O)c1ccc(Cl)cc1` [Indomethacin], for which the LC retention time is 1.08 min.
